pEC50: −log10 of the molar value. Residues, ends and D or L forms follow the SMILES beside them.
Legend:
Format in all cases: cell-based
BB3 [1] = molecular target: T1, BB3 (Homo sapiens, UniProt P32247); assay: Real-time receptor internalization (TR-FRET), concentration-response
T1 construct: hIL-2Ra signal peptide (N); expressed in transfected cells
T1 sequence (P32247 2-399 limits assumed): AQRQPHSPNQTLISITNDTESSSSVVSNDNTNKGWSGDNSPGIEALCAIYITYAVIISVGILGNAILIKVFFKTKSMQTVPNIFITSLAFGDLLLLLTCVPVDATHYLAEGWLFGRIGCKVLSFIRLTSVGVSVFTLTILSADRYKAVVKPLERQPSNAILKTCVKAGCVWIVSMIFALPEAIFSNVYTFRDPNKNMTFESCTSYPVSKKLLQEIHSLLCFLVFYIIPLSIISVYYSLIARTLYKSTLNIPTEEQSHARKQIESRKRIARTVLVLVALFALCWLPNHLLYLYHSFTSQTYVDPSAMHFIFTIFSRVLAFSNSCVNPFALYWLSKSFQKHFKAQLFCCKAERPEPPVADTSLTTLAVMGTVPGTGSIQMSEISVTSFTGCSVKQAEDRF

BB3 [2] = molecular target: T1, BB3; assay: IP1 accumulation (Gq/11), HTRF
BB3 [3] = molecular target: T1, BB3; assay: Dynamic mass redistribution (DMR), concentration-response
GPR55 [4] = molecular target: T2, GPR55 (Homo sapiens, UniProt Q9Y2T6); assay: Real-time receptor internalization (TR-FRET), concentration-response; parameters: hIL-2Ra signal peptide (N); expressed in transfected cells; conditions: receptor GPR55; mean, SEM and n (3-4); read-out: Internalization assays pEC50 (converted)
Experimental: (§1) 48 hr prior to parallel assaying, SNAP-tagged oGPCR cells were plated (10,000 cells/well) in fibronectin-coated 384-well Epic biosensor microplates (Corning) and poly-D-lysine coated white 384-well plates (for internalization assays). SNAP- GLP-1 receptor was plated alongside orphan receptor cells as an internal assay control for internalization assays. Receptor-expression was induced with 0.1 μg/ml doxycycline.
A TR-FRET real-time internalization assay was used to examine peptide-dependent changes in orphan receptor localization as described previously ([Foster and Bräuner-Osborne, 2018]). Surface-expressed SNAP-tagged receptors were labeled with a cell-impermeable luminescent terbium cryptate (100 nM SNAP Lumi4-Tb; Cisbio, France) for 1 hr at 37°C. Cells were washed to remove excess terbium and incubated with fluorescein-O-acetic acid (100 μM; Sigma Aldrich) for 5 min at 37°C. Peptides were added as for DMR assays, and internalization responses were recorded for 60 min at 37°C using an EnVision 2104 Multimode plate reader (PerkinElmer). 100 nM GLP-1 was used as a positive control for SNAP-GLP1R internalization. Real-time internalization responses were calculated based on TR-FRET (excitation 340 nm; emission 520 nm and 615 nm), and were expressed as the ratio between donor (terbium) and acceptor (fluorescein) emission. For peptide screening analysis (both DMR and internalization assays), we calculated the area under the curve from the real-time traces. […] Validation experiments for receptor internalization were performed as above. Internalization data was processed in MS-Excel and area under the curve was used to generate concentration-response curves using GraphPad Prism 7.0. Data represent mean ± standard error of the mean (SEM) from at least 3 biologically independent experiments.

GPR55 [5] = molecular target: T2, GPR55; assay: Dynamic mass redistribution (DMR), concentration-response; parameters: hIL-2Ra signal peptide (N); expressed in transfected cells; conditions: receptor GPR55; mean, SEM and n (2-4); read-out: DMR assays pEC50 (converted)
Experimental: as §1
DMR assays provide a single integrated readout of ligand-dependent cellular response, utilizing an optical biosensor in specialized microplates to detect wavelength shifts of reflected light as it passes through the biosensor and the lower portion of the cell (∼150-200 nm). As a signal pathway agnostic approach, DMR assays are well-suited to the study of GPCRs ([Fang et al., 2008], [Schröder et al., 2011]). The mass redistribution response (Δ picometer (pm)) likely reflects a number of intracellular events, including cytoskeletal rearrangement, protein trafficking and receptor internalization. Orphan receptor-expressing cells were gently washed twice with assay buffer (HBSS with 1 mM CaCl2, 1 mM MgCl2, 20 mM HEPES, 0.01% pluronic F-68, pH 7.4) containing 0.1% DMSO and cells were equilibrated for 90 min at 22°C in the EPIC Benchtop (BT) System (Corning) to establish a stable DMR signal. After 3-5 min baseline recordings, peptides (10 μM) were added in duplicate wells using an electronic 384-channel Viaflo pipette (Integra Biosciences, Switzerland) and DMR responses were measured for 60 min at 22°C. 100 nM norepinephrine was included as an internal assay control to assess the cellular DMR response via endogenously-expressed adrenoceptors in the TREx 293 cells. Real-time data were processed using the BT to column converter MS-Excel macro (Corning) and analyzed in GraphPad Prism 7.0. DMR recordings in peptide screening experiments were buffer and solvent corrected and the area under the curve (AUC) was quantified. For subsequent validation experiments, peptides were diluted in assay buffer containing 0.1% DMSO and DMR assays were performed as above. […] Data represent mean ± standard error of the mean (SEM) from at least 3 biologically independent experiments.

GPR1 = molecular target: T3, GPR1 (Homo sapiens, UniProt P46091); assay: β-arrestin recruitment (PathHunter); conditions: receptor GPR1; mean, SEM and n (2-3); read-out: b-arrestin recruitment assays (PathHunter) pEC50 (converted)
T3 sequence (P46091 1-355): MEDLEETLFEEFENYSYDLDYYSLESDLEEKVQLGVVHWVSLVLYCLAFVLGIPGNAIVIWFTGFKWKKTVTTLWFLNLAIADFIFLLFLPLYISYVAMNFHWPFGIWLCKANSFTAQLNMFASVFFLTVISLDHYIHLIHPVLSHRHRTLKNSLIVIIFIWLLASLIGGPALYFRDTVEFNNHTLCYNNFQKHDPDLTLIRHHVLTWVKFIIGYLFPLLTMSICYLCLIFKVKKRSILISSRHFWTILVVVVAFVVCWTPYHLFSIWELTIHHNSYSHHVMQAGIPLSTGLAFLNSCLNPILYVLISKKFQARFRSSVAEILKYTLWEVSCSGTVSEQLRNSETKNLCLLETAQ
Experimental: PathHunter eXpress Assays (DiscoverX) were performed in 384-well format according to the manufacturer’s recommendations. GPR1 cells were incubated with peptides for 90 min and luminescence measured using an EnSpire 2300 Multimode plate reader (PerkinElmer).

[6] = receptor BB3, mean, SEM and n (3), read-out: Internalization assays pEC50 (converted)
[7] = receptor BB3, mean, SEM and n (2-4), read-out: IP1 accumulation assays pEC50 (converted)
[8] = receptor BB3, mean, SEM and n (3), read-out: DMR assays pEC50 (converted)
[9] = receptor BB3, mean, SEM and n (3)

T2 sequence (Q9Y2T6 2-319 limits assumed): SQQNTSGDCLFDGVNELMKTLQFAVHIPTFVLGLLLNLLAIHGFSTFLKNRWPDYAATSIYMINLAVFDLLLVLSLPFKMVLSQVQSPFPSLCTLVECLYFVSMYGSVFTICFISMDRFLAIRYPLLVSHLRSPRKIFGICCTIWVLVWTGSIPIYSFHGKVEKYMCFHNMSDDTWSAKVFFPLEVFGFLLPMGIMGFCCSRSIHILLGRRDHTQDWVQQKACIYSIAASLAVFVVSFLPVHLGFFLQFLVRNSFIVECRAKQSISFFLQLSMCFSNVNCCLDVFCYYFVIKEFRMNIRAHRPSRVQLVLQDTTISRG

CC(C)C[C@H](NC(=O)[C@H](CCCCN)NC(=O)[C@H](CCC(N)=O)NC(=O)[C@@H](NC(=O)[C@H](CCCCN)NC(=O)[C@H](CO)NC(=O)[C@H](Cc1ccc(O)cc1)NC(=O)[C@H](Cc1c[nH]cn1)NC(=O)[C@H](Cc1ccccc1)NC(=O)[C@H](CC(C)C)NC(=O)[C@@H](N)Cc1ccccc1)[C@@H](C)O)C(N)=O [67 resynthesized] (H-FLFHYSKTQKL-NH2)
EC50 (BB3 [1]; [6]): 34.7 µM | EC50 (BB3 [2]; [7]): 1.66 µM | EC50 (BB3 [3]; [8]): 2.69 µM

CC[C@H](C)[C@H](NC(=O)[C@H](CC(=O)O)NC(=O)[C@@H](NC(=O)[C@H](Cc1ccc(O)cc1)NC(=O)[C@@H](NC(=O)CNC(=O)[C@H](CC(N)=O)NC(=O)[C@@H](NC(=O)[C@H](CC(C)C)NC(=O)[C@H](Cc1ccc(O)cc1)NC(=O)[C@H](CC(=O)O)NC(=O)[C@H](CC(C)C)NC(=O)[C@H](CCCNC(=N)N)NC(=O)[C@H](CO)NC(=O)[C@H](Cc1ccc(O)cc1)NC(=O)[C@H](CCCNC(=N)N)NC(=O)[C@@H](N)CCCCN)[C@@H](C)CC)[C@@H](C)CC)C(C)C)C(=O)O [114 resynthesized] (H-KRYSRLDYLINGIYVDI-OH)
EC50 (GPR55 [4]): 15.8 µM | EC50 (GPR55 [5]): 3.89 µM

CSCC[C@H](NC(=O)[C@H](Cc1ccccc1)NC(=O)CNC(=O)CNC(=O)[C@@H](N)Cc1ccc(O)cc1)C(=O)N[C@@H](CCCNC(=N)N)C(=O)N[C@@H](CCCNC(=N)N)C(=O)N[C@H](C(=O)NCC(=O)N[C@@H](CCCNC(=N)N)C(=O)N1CCC[C@H]1C(=O)N[C@@H](CCC(=O)O)C(=O)N[C@@H](Cc1c[nH]c2ccccc12)C(=O)N[C@@H](Cc1c[nH]c2ccccc12)C(=O)N[C@@H](CCSC)C(=O)N[C@@H](CC(=O)O)C(=O)N[C@@H](Cc1ccc(O)cc1)C(=O)N[C@@H](CCC(N)=O)C(=O)N[C@@H](CCCCN)C(=O)N[C@@H](CCCNC(=N)N)C(=O)N[C@@H](Cc1ccc(O)cc1)C(=O)NCC(=O)NCC(=O)N[C@@H](Cc1ccccc1)C(=O)N[C@@H](CC(C)C)C(=O)O)C(C)C [158 resynthesized] (H-YGGFMRRVGRPEWWMDYQKRYGGFL-OH)
pEC50 (BB3 [1]; Internalization assays pEC50): 5.41 | pEC50 (BB3 [2]; IP1 accumulation assays pEC50, receptor BB3, mean, SEM and n (2-4)): 5.43 | pEC50 (BB3 [3]; DMR assays pEC50, receptor BB3, mean, SEM and n (3)): 3.96

CC(C)C[C@H](NC(=O)[C@H](Cc1ccccc1)NC(=O)CNC(=O)CNC(=O)[C@@H](N)Cc1ccc(O)cc1)C(=O)O [158.2 (Phoenix)]
pEC50 (BB3 [1]): 5.33 | pEC50 (BB3 [2]): 7.80 | pEC50 (BB3 [3]): 6.61

CC(C)C[C@H](NC(=O)[C@H](CCCCN)NC(=O)[C@H](CCC(N)=O)NC(=O)[C@@H](NC(=O)[C@H](CCCCN)NC(=O)[C@H](CO)NC(=O)[C@H](Cc1ccc(O)cc1)NC(=O)[C@H](Cc1c[nH]cn1)NC(=O)[C@H](Cc1ccccc1)NC(=O)[C@H](CC(C)C)NC(=O)[C@@H](N)Cc1ccccc1)[C@@H](C)O)C(N)=O [Neuromedin U pre-pro_(1-11)] (H-FLFHYSKTQKL-NH2)
EC50 (BB3 [1]; BB3, mean, SEM and n, read-out: pEC50, Internalization (AUC) (converted)): 31.6 µM | EC50 (BB3 [2]; BB3, mean, SEM and n, read-out: pEC50, IP1 (converted)): 2.19 µM | EC50 (BB3 [3]; BB3, mean, SEM and n, read-out: pEC50, DMR (peak) (converted)): 2.29 µM

CC(C)C[C@H](NC(=O)[C@H](CCCNC(=N)N)NC(=O)[C@@H](N)CCCCN)C(=O)NCC(=O)N[C@@H](CCC(=O)O)C(=O)N[C@@H](CC(C)C)C(=O)N[C@@H](Cc1ccccc1)C(=O)N[C@@H](CC(N)=O)C(=O)N1CCC[C@H]1C(=O)N[C@@H](Cc1ccc(O)cc1)C(=O)N[C@@H](Cc1ccc(O)cc1)C(=O)N[C@@H](CC(=O)O)C(=O)N1CCC[C@H]1C(=O)N[C@@H](CC(C)C)C(=O)N[C@@H](CCC(N)=O)C(=O)N[C@@H](Cc1c[nH]c2ccccc12)C(=O)N[C@@H](CCCCN)C(=O)N[C@@H](CO)C(=O)N[C@@H](CO)C(=O)N[C@@H](Cc1c[nH]cn1)C(=O)N[C@@H](Cc1ccccc1)C(=O)N[C@@H](CCC(=O)O)C(=O)O [Peptide 143.1] (H-KRLGELFNPYYDPLQWKSSHFE-OH)
EC50 (GPR55 [5]): 25.1 µM

CSCC[C@H](NC(=O)[C@H](Cc1c[nH]c2ccccc12)NC(=O)[C@H](Cc1c[nH]c2ccccc12)NC(=O)[C@H](CCC(=O)O)NC(=O)[C@@H]1CCCN1C(=O)[C@H](CCCNC(=N)N)NC(=O)CNC(=O)[C@@H](N)C(C)C)C(=O)N[C@@H](CC(=O)O)C(=O)N[C@@H](Cc1ccc(O)cc1)C(=O)N[C@@H](CCC(N)=O)C(=O)N[C@@H](CCCCN)C(=O)N[C@@H](CCCNC(=N)N)C(=O)N[C@@H](Cc1ccc(O)cc1)C(=O)NCC(=O)NCC(=O)N[C@@H](Cc1ccccc1)C(=O)N[C@@H](CC(C)C)C(=O)O [Peptide 158.4] (H-VGRPEWWMDYQKRYGGFL-OH)
pEC50 (BB3 [1]): 4.99 | pEC50 (BB3 [2]): 4.79 | pEC50 (BB3 [3]): 5.06

CSCC[C@H](NC(=O)[C@H](Cc1c[nH]c2ccccc12)NC(=O)[C@H](Cc1c[nH]c2ccccc12)NC(=O)[C@H](CCC(=O)O)NC(=O)[C@@H]1CCCN1)C(=O)N[C@@H](CC(=O)O)C(=O)N[C@@H](Cc1ccc(O)cc1)C(=O)N[C@@H](CCC(N)=O)C(=O)N[C@@H](CCCCN)C(=O)N[C@@H](CCCNC(=N)N)C(=O)N[C@@H](Cc1ccc(O)cc1)C(=O)NCC(=O)NCC(=O)N[C@@H](Cc1ccccc1)C(=O)N[C@@H](CC(C)C)C(=O)O [Peptide 158.6] (H-PEWWMDYQKRYGGFL-OH)
pEC50 (BB3 [1]): 5.02 | pEC50 (BB3 [2]): 4.50 | pEC50 (BB3 [3]): 6.08

CSCC[C@H](NC(=O)[C@H](CC(C)C)NC(=O)[C@H](Cc1cnc[nH]1)NC(=O)CNC(=O)[C@@H](NC(=O)[C@H](C)NC(=O)[C@H](Cc1c[nH]c2ccccc12)NC(=O)[C@H](Cc1cnc[nH]1)NC(=O)[C@H](CC(N)=O)NC(=O)CN)C(C)C)C(N)=O [Peptide 167.1]
EC50 (BB3 [1]; [6]): 14.5 µM | EC50 (GPR1): 22.9 µM | EC50 (BB3 [2]; [7]): 2.51 µM | EC50 (BB3 [3]; [8]): 0.49 µM

FLFHYSKTQKL [67 original]
Internalization assays Emax (AUC) (BB3 [1]; [9]): 14.6 | IP1 accumulation assays Emax (BB3 [2]; receptor BB3, mean, SEM and n (2-4)): 62.1 nM | DMR assays Emax (peak or AUC) (BB3 [3]; [9]): 199

From article PMC6838683, “Discovery of Human Signaling Systems: Pairing Peptides to G Protein-Coupled Receptors” (Cell, 2019)
